According to article doi:10.1101/2022.03.30.486313v1 (biorxiv, 2022):

Columns and labels:
[1] = target: T1, SARS-CoV-2 PLpro (Severe acute respiratory syndrome coronavirus 2, UniProt P0DTD1); assay: biochemical
[2] = target: T1, SARS-CoV-2 PLpro; assay: biochemical; remark: listed apart in the source

SMILES	IC50 [1]	EC50 [2]
CN(C)CCSSCCN(C)C [DMGA, bis[2-(N,N-dimethylamino)ethyl] disulfide]	9.4 µM	
O=S(=O)(O)CCSSCCS(=O)(=O)O [Dimesna]		1050 µM
Cc1ncc(CSSCc2cnc(C)c(O)c2CO)c(CO)c1O [Pyritinol]		18 µM
